Measurements published in ChEMBL document CHEMBL4354835, “Selective Blockade of Neuronal BK (α + β4) Channels Preventing Epileptic Seizure” (J Med Chem, 2020).
Activity calls are given as the source filed them. The rule behind the calls is not given here.

How the values were obtained:
[1] = organism: Rattus norvegicus; experiment: Anticonvulsant activity against PTZ-induced epileptic seizure Sprague-Dawley rat model assessed as latency time of seizures compound infused into hippocampal region and 10 mins later injected with PTZ and measured for 2 hrs post PTZ-stimulation (reference value: 108.5 +/- 8.63 sec); assay type: functional
[2] = organism: Rattus norvegicus; experiment: Anticonvulsant activity against PTZ-induced epileptic seizure Sprague-Dawley rat model assessed as mortality rate compound infused into hippocampal region and 10 mins later injected with PTZ and measured for 2 hrs post PTZ-stimulation (reference value: 33.33%); assay type: functional
[3] = organism: Rattus norvegicus; experiment: Anticonvulsant activity against PTZ-induced epileptic seizure Sprague-Dawley rat model assessed as duration of seizure compound infused into hippocampal region and 10 mins later injected with PTZ and measured for 2 hrs post PTZ-stimulation (reference value: 376 +/- 76.43 sec); assay type: functional
[4] = organism: Rattus norvegicus; experiment: (§1) Inhibition of C-Fos expression in PTZ-induced epileptic seizures Sprague-Dawley rat model assessed as inhibition of FLI-positive granular neurons in DG region of ipsilateral hippocampus at 10 uM compound infused into hippocampal region and 10 mins later injected with PTZ and measured after 2 hrs by immunohistochemistry; assay type: functional, organism-based
[5] = molecular target: T1, KCNMA1/KCNMB4 (Rattus norvegicus) (UniProt Q62976+Q9ESK8); experiment: Inhibition of BK alpha/beta-4 in PTZ-stimulated rat hippocampal pyramidal neurons assessed as slower decay of after hyperpolarization at 300 pA at -80mV holding potential measured after 10 mins by whole cell current clamp assay; assay type: protein-complex assay
[6] = organism: Rattus norvegicus; experiment: Effect on neuronal network in PTZ-induced epileptic seizures Sprague-Dawley rat model assessed as reduced total PSD frequency waves compound infused into hippocampal region and 10 mins later injected with PTZ and measured after 2 hrs by power spectral density analysis; assay type: functional, organism-based
[7] = organism: Rattus norvegicus; experiment: Anticonvulsant activity against PTZ-induced epileptic seizures Sprague-Dawley rat model assessed as decrease in number of seizures at high stage (stage 4 and 5) compound infused into hippocampal region and 10 mins later injected with PTZ and measured for 2 hrs post-PTZ stimulation; assay type: functional, organism-based
[8] = organism: Rattus norvegicus; experiment: Effect on neuronal network in PTZ-induced epileptic seizures Sprague-Dawley rat model assessed as lowered PSD at beta wave band compound infused into hippocampal region and 10 mins later injected with PTZ and measured after 2 hrs by power spectral density analysis; assay type: functional, organism-based
[9] = molecular target: T2, Calcium-activated potassium channel subunit beta-4 (Homo sapiens, UniProt Q86W47); experiment: Binding affinity to NT-495 fluorophore reagent labelled human BK beta4 (45 to 166 residues) incubated for 30 mins by microscale thermophoresis assay
T2 sequence (Q86W47 whole entry): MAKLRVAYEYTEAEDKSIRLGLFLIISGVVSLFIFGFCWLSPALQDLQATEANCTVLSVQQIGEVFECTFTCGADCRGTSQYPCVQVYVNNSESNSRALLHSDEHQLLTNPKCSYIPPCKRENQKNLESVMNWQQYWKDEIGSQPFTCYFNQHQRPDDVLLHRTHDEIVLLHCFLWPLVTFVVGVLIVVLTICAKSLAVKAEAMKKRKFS

[10] = molecular target: T1, KCNMA1/KCNMB4 (Rattus norvegicus); experiment: Inhibition of BK alpha/beta-4 in PTZ-stimulated rat hippocampal pyramidal neurons assessed as increase in AHP size at 300 pA at -80mV holding potential measured after 10 mins by whole cell current clamp assay; assay type: protein-complex assay
[11] = organism: Rattus norvegicus; experiment: (§2) Neuroprotective activity in PTZ-induced epileptic seizure Sprague-Dawley rat model assessed as inhibition of hippocampal destruction by measuring increase in Nissl stained pyramidal neurons in contralateral hippocampus CA3 region compound infused into hippocampal region and 10 mins later injected with PTZ and measured after 3 days by Nissl staining based microscopic analysis; assay type: functional, organism-based
[12] = organism: Rattus norvegicus; experiment: as §2, with “CA1” for “CA3”; assay type: functional, organism-based
[13] = organism: Rattus norvegicus; experiment: as §1, with “pyramidal” for “granular”, “CA3” for “DG”, “contralateral” for “ipsilateral”; assay type: functional, organism-based
[14] = molecular target: KCNMA1/KCNMB4 (Homo sapiens, UniProt Q12791+Q86W47); experiment: Inhibition of human BK alpha/beta4 channel expressed in HEK293T cells assessed as K+ outward current fraction at 10 uM at -80 mV holding potential by whole cell patch clamp method relative to control; assay type: cell-based
[15] = organism: Rattus norvegicus; experiment: Effect on neuronal network in PTZ-induced epileptic seizures Sprague-Dawley rat model assessed as lowered PSD at gamma wave band compound infused into hippocampal region and 10 mins later injected with PTZ and measured after 2 hrs by power spectral density analysis; assay type: functional, organism-based
[16] = organism: Rattus norvegicus; experiment: as §1, with “pyramidal” for “granular”, “CA3” for “DG”; assay type: functional, organism-based
[17] = organism: Rattus norvegicus; experiment: as §2, with “granular” for “pyramidal”, “DG” for “CA3”; assay type: functional, organism-based
[18] = molecular target: T1, KCNMA1/KCNMB4 (Rattus norvegicus); experiment: Inhibition of BK alpha/beta-4 in PTZ-stimulated rat hippocampal pyramidal neurons assessed as larger action potential width at 300 pA current injection at -80mV holding potential measured after 10 mins by whole cell current clamp assay; assay type: protein-complex assay
[19] = organism: Rattus norvegicus; experiment: Effect on neuronal network in PTZ-induced epileptic seizures Sprague-Dawley rat model assessed as lowered PSD at theta wave band compound infused into hippocampal region and 10 mins later injected with PTZ and measured after 2 hrs by power spectral density analysis; assay type: functional, organism-based
[20] = organism: Rattus norvegicus; experiment: Effect on neuronal network in PTZ-induced epileptic seizures Sprague-Dawley rat model assessed as lowered PSD at alpha wave band compound infused into hippocampal region and 10 mins later injected with PTZ and measured after 2 hrs by power spectral density analysis; assay type: functional, organism-based
[21] = organism: Rattus norvegicus; experiment: as §1, with “contralateral” for “ipsilateral”; assay type: functional, organism-based
[22] = organism: Rattus norvegicus; experiment: Anticonvulsant activity against PTZ-induced epileptic seizure Sprague-Dawley rat model assessed as reduction in mortality rate compound infused into hippocampal region and 10 mins later injected with PTZ and measured for 2 hrs post PTZ-stimulation; assay type: functional, organism-based
[23] = organism: Rattus norvegicus; experiment: Effect on neuronal network in PTZ-induced epileptic seizures Sprague-Dawley rat model assessed as lowered PSD at delta wave band compound infused into hippocampal region and 10 mins later injected with PTZ and measured after 2 hrs by power spectral density analysis; assay type: functional, organism-based

CCCC(CCC)C(=O)O [VALPROIC ACID] showed a Time [1] of 156.63 s, a mortality [2] of 0% and a Time [3] of 181.25 s.

In the case of CC[C@H](C)[C@H](NC(=O)[C@H](CC(C)C)NC(=O)CNC(=O)[C@H](Cc1ccccc1)NC(=O)[C@H](CO)NC(=O)CN)C(=O)N[C@@H](CC(=O)O)C(=O)N[C@H](C(=O)N[C@@H](CCCCN)C(=O)N[C@H]1CSSC[C@@H]2NC(=O)[C@H](CCCCN)NC(=O)CNC(=O)[C@H](CCC(N)=O)NC(=O)CNC(=O)[C@H](CO)NC(=O)CNC(=O)[C@H]([C@@H](C)O)NC(=O)[C@H](C(C)C)NC(=O)[C@H](CCC(=O)O)NC(=O)[C@H](CCCCN)NC(=O)[C@@H]3CSSC[C@@H](C(=O)N[C@@H](Cc4ccc(O)cc4)C(=O)O)N[C@@H](CCCNC(=N)N)C(=O)[C@H](CSSC[C@H](NC(=O)[C@H](CCC(=O)O)NC(=O)[C@H](CO)NC(=O)[C@H](CO)NC(=O)[C@H](C)NC(=O)[C@H](Cc4ccccc4)NC1=O)C(=O)N[C@@H](Cc1c[nH]c4ccccc14)C(=O)N[C@@H]([C@@H](C)O)C(=O)N[C@@H](C)C(=O)N3)N[C@@H](CCC(N)=O)C(=O)NC(=O)[C@H](CC(N)=O)NC(=O)[C@H](CC(N)=O)NC(=O)[C@H](CCC(N)=O)NC2=O)C(C)C, the inhibition [4] is reported as “inactive”, the inhibition [5] is reported as “inactive” and the inhibition [6] is reported as “inactive”. The Activity [7] was “inactive”, the Activity [8] was “inactive” and the Kd [9] was “Not Active”. For the same molecule, the inhibition [10] was “inactive”, the Activity [11] was “Active” and the Activity [12] was “inactive”. The inhibition [13] was “inactive”, the Ratio [14] was 0.8 and the Activity [15] was “Active”. The inhibition [16] was “inactive”, the Activity [17] was “Active” and the inhibition [18] was “Active”. The Activity [19] was “inactive”, the Time [1] was 219.5 to 266.5 s and the Activity [20] was “inactive”. For the same molecule, the inhibition [21] was “inactive”, the Activity [22] was “inactive” and the Activity [23] was “inactive”. For the same molecule, the Time [3] was 316.66 to 353.33 s.
